Measurements: PMC8433837, “(+)-Usnic Acid as a Promising Candidate for a Safe and Stable Topical Photoprotective Agent” (Molecules, 2021)
Read-outs that look alike come from different tables or passages of the source.

How the values were obtained:
fibroblasts = tested on: fibroblasts; set-up: method as in PMID 28095330; conditions: previous study; cited from earlier work
[1] = skin-PAMPA permeability assay; format: in vitro ADME; conditions: for Papp at 2 µg/mL: concentration 2 µg/mL; for Papp at 4 µg/mL: concentration 4 µg/mL
Method: The skin-PAMPA (parallel artificial membrane permeability assay) method was used, as described previously, to determine the permeability of the tested usnic acid enantiomers. The model consists of a two-chamber PAMPA sandwich, with 96 wells each. Before the experiment, the top plate, with the lipid-impregnated skin-mimetic membrane, was hydrated overnight with the hydration solution (200 µL per well). The tested substances were added at concentrations of 2 and 4 µg/mL. Each experiment was repeated at least three times, using six replicates on each plate, and the results were presented as mean ± SD. The amount of permeated active compounds was determined by spectroscopic analysis (Multiskan GO microplate reader, Thermo Scientific MaxQ 4450, Waltham, MA, USA), with a wavelength of 290 nm. For the calibration curve, stock solutions in the range of 12.5–150 µg/mL were prepared.
The apparent permeability coefficients (Papp) were calculated using the following equation:(1) Papp=−ln(1−CA/Cequilibrium)/S×(1/VD+1/VA)×t where VD = donor volume, VA = acceptor volume, Cequilibrium = equilibrium concentration, Cequilibrium=CD×VD+CA×VA/VD+VA , CD = donor concentration, CA = acceptor concentration, S = membrane area, and t = incubation time (in seconds). Compounds with Papp < 1 × 10^−6 cm/s are classified as having low permeability, and those with Papp > 1 × 10^−6 cm/s as highly permeable compounds.

HDF cells = tested on: HDF cells; set-up: method as in PMID 31282672; conditions: cited from earlier work
[2] = Ultraviolet spectroscopy in ethanol solutions; format: physicochemical; conditions: ethanol solution; for E1.1 (λmax): extinction at 1 cm path length and 1% concentration; for ‹E1.1mean›: mean specific extinction 290 to 400 nm
Method: Spectra with a scan range of 250–400 nm were recorded in 30 µM ethanol solutions, in 1 cm path length, with 1.5 mL quartz cuvettes on a U-2800 double-beam spectrophotometer (Hitachi, Tokyo, Japan) controlled using UV Solution version 2.2 software. The molar extinction coefficient at maximum absorption (εmax) of the tested compounds was determined in ethanol as the slope of the linear regression of absorbance vs. the concentration of the tested compound (from 10 to 50 µM). The E1,1 coefficient was calculated using the formula: E1,1=ε[L/mol cm]× 10[g/L]/Mg/mol] × 1[cm] where ‹E1,1›mean value is a mean value of the specific extinction over the spectral range from 290 to 400 nm.

irradiated guinea pigs = tested on: irradiated guinea pigs; set-up: method as in earlier work; conditions: cited from earlier work
HaCaT cells = conditions: cited from earlier work
human volunteers = tested on: human volunteers; set-up: method as in PMID 12468208; conditions: versus reference Nivea sun spray (SPF 5); cited from earlier work
[3] = set-up: method as in doi:10.1016/S1010-6030(98)00368-2; conditions: three-week exposure, 12 h/day natural sunlight + 12 h/day incubator with light source; cited from earlier work
[4] = set-up: method as in PMID 28704942; conditions: different test for the evaluation; cited from earlier work
HEM cells = tested on: HEM cells; set-up: method as in PMID 32092663; conditions: cited from earlier work
[5] = set-up: method as in PMID 24238180; conditions: cited from earlier work
[6] = tested on: HaCaT human skin keratinocytes; test: LDH viability test, HaCaT keratinocytes; format: cell-based
Method: (§1) Normal human skin keratinocytes (HaCaT), melanocytes (HEM), and fibroblasts (HDF) were grown at 37 °C in a 5% CO2 atmosphere, with relative humidity, on high-glucose DMEM (HaCaT, HDF), or melanocyte growth medium (HEM), supplemented with 10% fetal bovine serum (FBS) and antibiotics. Before the experiment, cells were seeded onto 96-well plates (1.5 × 10^4 cells/well) for 24 h. Then, the culture medium was replaced with the same medium, containing 2–100 µg/mL of the tested substances, and incubated for 24, 48, or 72 h. LDH release was measured as described previously. Briefly, a proper quantity of a reagent mixture was added to the cell supernatants, and after 30 min the absorbance was measured at 490 nm (the reference wavelength 600 nm) with a BioTek Synergy microplate reader (BioTek Instruments Inc., Winooski, VT, USA). Cytotoxicity was calculated as follows: ((Asample − Acontrol)/(Ama − Acontrol)) × 100; where Asample = the absorbance value for the cells incubated with the tested substances., Acontrol = the absorbance value for untreated, control cells (spontaneous LDH release), and Amax = the absorbance value in Triton-X100-lysed cells (maximum LDH release).
(§2) Each experiment was performed in triplicate, and the results were presented as mean ± SD.

[7] = tested on: Human epidermal melanocytes (HEM); test: LDH viability test, HEM melanocytes; format: cell-based; conditions: Melanocyte, HEM melanocytes (remaining cell lines)
Method: as §1, §2

dermal fibroblasts (HDF) = test: LDH viability test, HDF fibroblasts; format: cell-based; conditions: Homo sapiens, Fibroblast, HDF fibroblasts (remaining cell lines)
Method: as §1, §2

**Q.** For CC(=O)C1=C(O)C=C2Oc3c(C(C)=O)c(O)c(C)c(O)c3[C@@]2(C)C1=O [(+)-usnic acid], which IC50 (fibroblasts) is on record?
**A.** > 40 µg/mL

**Q.** And the Papp at 2 µg/mL [1]?
**A.** 7.53 ± 1.25 ×10⁻⁶ cm/s

**Q.** What about the Papp at 4 µg/mL [1] of the same molecule?
**A.** 7.9 ± 0.65 ×10⁻⁶ cm/s

**Q.** What about the IC50 (HDF cells; conversion of > 10 µM) of the same molecule?
**A.** about 3.5 µg/mL

**Q.** What about the IC50 (HDF cells; read-out: IC50) of the same molecule?
**A.** > 10 µM

**Q.** And the εmax [2]?
**A.** 21 120 M^−1 cm^−1

**Q.** And the λmax [2]?
**A.** 281 nm

**Q.** What about the “E1.1 (λmax)” value [2] of the same molecule?
**A.** 613

**Q.** What about the “‹E1.1mean›” value [2] of the same molecule?
**A.** 76

**Q.** Which “SPF as compared to the reference (homosalate)” value (irradiated guinea pigs) does the source give for CC(=O)c1c(O)c(C)c(O)c2c1OC1=CC(=O)C(C(C)=O)C(=O)C12C (centres unmarked) [usnic acid, 2,6-diacetyl-7,9-dihydroxy-8,9b-dimethyl-1,3(2H,9bH)-dibenzofurandione] here?
**A.** two times higher

**Q.** What about the IC50 (HaCaT cells; conversion of the µM value) of the same molecule?
**A.** about 64 µg/mL

**Q.** And the IC50 (HaCaT cells; read-out: IC50)?
**A.** 186 ± 4.8 µM

**Q.** What about the “effectiveness in sun protection” value (human volunteers) of the same molecule?
**A.** comparable to a reference Nivea sun spray

**Q.** What about the “stability of methanol solution exposed to light” value [3] of the same molecule?
**A.** wholly degraded

**Q.** And the “PF UVA” value [4]?
**A.** 1.8

**Q.** What about the SPF [4] of the same molecule?
**A.** 3.9

**Q.** And the IC50 (HEM cells; conversion of the µM value)?
**A.** about 2.4 µg/mL

**Q.** What about the IC50 (HEM cells; read-out: IC50) of the same molecule?
**A.** 6.9 µM

**Q.** Which εmax [2] does the source give for CCCCC(CC)COC(=O)C(C#N)=C(c1ccccc1)c1ccccc1 (centres unmarked) [octocrylene, 2-ethylhexyl 2-cyano-3,3-diphenylacrylate, reference compound] here?
**A.** 13 650 M^−1 cm^−1

**Q.** And the λmax [2]?
**A.** 302 nm

**Q.** What about the “E1.1 (λmax)” value [2] of the same molecule?
**A.** 378

**Q.** What about the “‹E1.1mean›” value [2] of the same molecule?
**A.** 141

**Q.** With dimethicodiethylbenzalmalonate as the molecule, how does the “E1,1 value” [5] read?
**A.** ~ 150

**Q.** What does the source list for CC(=O)C1=C(O)C=C2Oc3c(C(C)=O)c(O)c(C)c(O)c3[C@]2(C)C1=O [(−)-usnic acid]?
**A.** IC50 ([6]; 48 h): 80.8 µg/mL; IC50 ([6]; 72 h): 70.1 µg/mL; Papp at 2 µg/mL [1]: 7.46 ± 1.12 ×10⁻⁶ cm/s; Papp at 4 µg/mL [1]: 8.28 ± 1.33 ×10⁻⁶ cm/s; IC50 [7]: > 100 µg/mL; IC50 (dermal fibroblasts (HDF)): > 100 µg/mL
